Source: patent US20250152585A1, “PHARMACEUTICAL COMPOUND” (Duke Street Bio Limited, priority 2022, published 2025)
Where two headings read alike, the source gives them in different places.

Tests used:
[1] = biological target: T1, N-terminally FLAG-tagged PARP2 (amino acids 1-583) (Homo sapiens, UniProt Q9UGN5); assay: PARP2 probe displacement HTRF assay; assay type: binding; conditions: binned Kd
T1 construct: N-terminally FLAG-tagged PARP2 (amino acids 1-583)
Experimental: Data analysis was performed identical as for PARP1.

[2] = biological target: T2, full length N-terminally FLAG-tagged PARP1 (Homo sapiens, UniProt P09874); assay: PARP1 probe displacement HTRF assay; conditions: for Kd: binned Kd; for Selectivity: PARP1 over PARP2, ratio Kd (PARP2)/Kd (PARP1)
[3] = biological target: T2, full length N-terminally FLAG-tagged PARP1; assay: PARP1 biochemical DELFIA assay (auto-PARylation); design: recombinant full length human N-terminally FLAG-tagged PARP1
[4] = binned IC50, PARP1 biochemical DELFIA assay
[5] = read-out: PARP1 HTRF, probe displacement HTRF
[6] = binned IC50, biochemical auto-PARylation assay
[7] = read-out: PARP1 HTRF, PARP1 probe displacement HTRF

T1 sequence (Q9UGN5 whole entry, the tested form may be a part): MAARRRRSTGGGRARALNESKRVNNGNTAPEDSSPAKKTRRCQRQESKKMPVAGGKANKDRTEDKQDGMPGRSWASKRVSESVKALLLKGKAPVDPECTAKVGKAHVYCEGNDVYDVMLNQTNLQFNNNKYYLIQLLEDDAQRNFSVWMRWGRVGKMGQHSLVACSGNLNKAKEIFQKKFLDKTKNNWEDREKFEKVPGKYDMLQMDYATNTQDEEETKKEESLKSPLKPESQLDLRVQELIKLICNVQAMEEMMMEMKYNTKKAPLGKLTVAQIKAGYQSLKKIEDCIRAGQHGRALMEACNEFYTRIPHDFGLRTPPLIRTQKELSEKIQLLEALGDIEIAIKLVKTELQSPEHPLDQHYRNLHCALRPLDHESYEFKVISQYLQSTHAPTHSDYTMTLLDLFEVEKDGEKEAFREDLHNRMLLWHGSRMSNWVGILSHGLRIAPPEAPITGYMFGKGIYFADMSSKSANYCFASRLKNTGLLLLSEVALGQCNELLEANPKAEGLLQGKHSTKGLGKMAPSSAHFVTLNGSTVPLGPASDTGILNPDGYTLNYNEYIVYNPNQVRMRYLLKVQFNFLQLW
T2 sequence (P09874 whole entry): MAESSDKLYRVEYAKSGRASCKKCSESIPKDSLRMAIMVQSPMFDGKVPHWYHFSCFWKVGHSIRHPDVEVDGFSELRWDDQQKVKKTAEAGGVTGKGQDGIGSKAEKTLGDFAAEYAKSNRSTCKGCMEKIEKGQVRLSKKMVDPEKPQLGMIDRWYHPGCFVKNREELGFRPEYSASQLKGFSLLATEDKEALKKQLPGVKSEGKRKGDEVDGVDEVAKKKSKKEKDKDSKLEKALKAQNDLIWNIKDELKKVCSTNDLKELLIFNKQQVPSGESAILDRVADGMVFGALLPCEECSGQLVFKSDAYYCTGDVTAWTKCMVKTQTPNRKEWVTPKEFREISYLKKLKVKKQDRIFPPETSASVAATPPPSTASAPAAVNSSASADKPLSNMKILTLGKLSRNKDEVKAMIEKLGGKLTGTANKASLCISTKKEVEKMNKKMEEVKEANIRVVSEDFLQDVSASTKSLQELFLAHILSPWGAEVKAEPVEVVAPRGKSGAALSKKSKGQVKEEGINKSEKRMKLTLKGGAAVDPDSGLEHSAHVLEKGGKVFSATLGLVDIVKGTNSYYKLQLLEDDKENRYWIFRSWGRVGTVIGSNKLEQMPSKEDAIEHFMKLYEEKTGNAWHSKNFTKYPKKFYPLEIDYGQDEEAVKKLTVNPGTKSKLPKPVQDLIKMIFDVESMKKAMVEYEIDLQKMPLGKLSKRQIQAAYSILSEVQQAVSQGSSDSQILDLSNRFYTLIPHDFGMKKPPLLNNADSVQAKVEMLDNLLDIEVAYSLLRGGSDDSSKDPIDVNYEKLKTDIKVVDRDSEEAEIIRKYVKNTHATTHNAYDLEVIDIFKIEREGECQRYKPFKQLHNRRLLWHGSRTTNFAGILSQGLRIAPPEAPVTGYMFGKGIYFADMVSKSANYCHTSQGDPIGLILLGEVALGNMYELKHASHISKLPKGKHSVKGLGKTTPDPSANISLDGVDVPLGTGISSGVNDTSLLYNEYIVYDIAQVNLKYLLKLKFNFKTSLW

IC50 [3, 4]	SMILES	Selectivity ([2]; probe displacement HTRF)	also measured
< 10 nM	CNC(=O)c1ccc(N2CCC(N3CCC(c4nc5c(c(=O)[nH]4)CCCN5C)C3)CC2)cn1 (single isomer, unassigned) [Compound 208b, N-methyl-5-(4-(3-(8-methyl-4-oxo-3,4,5,6,7,8-hexahydropyrido[2,3-d]pyrimidin-2-yl)pyrrolidin-1-yl)piperidin-1-yl)picolinamide]	++ (++ indicates a value of 50 to less than 100)	Kd ([1]; PARP2 probe displacement HTRF): 10 to 100 nM; Kd ([2]; PARP1 HTRF, PARP1 probe displacement HTRF): < 10 nM
–	CNC(=O)c1ccc(N2CCC(N3CCC(c4[nH]c(=O)c5ccccc5c4C)C3)CC2)cn1 (racemic) [Compound 237rac]	++ (++ indicates a value of 50 to less than 100)	Kd ([1]; probe displacement HTRF): 10 to 100 nM; Kd [2, 5]: < 10 nM; IC50 [3, 6]: < 10 nM
–	CCc1ccc(C2CCN(C3CCN(c4ccc(C(=O)NC5CC5)nc4C#N)CC3)C2)[nH]c1=O (single isomer, unassigned) [Compound 409a]	+++ (+++ indicate a value of at least 100)	Kd ([1]; probe displacement HTRF): 1000 to 10000 nM; Kd [2, 5]: < 10 nM; IC50 [3, 6]: < 10 nM
1000 to 10000 nM	CNC(=O)c1ccc(N2CC(N3CCCC(Cc4nc5ccccc5c(=O)[nH]4)C3)C2)cn1 (single isomer, unassigned) [Compound 51b]	− (− indicates a value of less than 10)	Kd ([1]; PARP2 probe displacement HTRF): 1000 to 10000 nM; Kd [2, 7]: 1000 to 10000 nM
10 to 100 nM	N#Cc1ccc(N2CCC(N3CCCC(c4nc5ccccc5c(=O)[nH]4)C3)CC2)cn1 (single isomer, unassigned) [Compound 70b]	− (− indicates a value of less than 10)	Kd ([1]; PARP2 probe displacement HTRF): 100 to 1000 nM; Kd [2, 7]: 100 to 1000 nM
1000 to 10000 nM	CNC(=O)c1ccc(N2CCC(N3CCC(c4nc5onc(C)c5c(=O)[nH]4)C3)CC2)cn1 (single isomer, unassigned) [Compound 149b]	− (− indicates a value of less than 10)	Kd ([1]; PARP2 probe displacement HTRF): > 10000 nM; Kd [2, 7]: 1000 to 10000 nM
–	O=C(NCC(F)F)c1ccc(N2CCC(N3CCC(c4cc5cccc(F)c5c(=O)[nH]4)C3)CC2)c(F)n1 (single isomer, unassigned) [Compound 390b]	++ (++ indicates a value of 50 to less than 100)	Kd ([1]; probe displacement HTRF): 10 to 100 nM; Kd [2, 5]: < 10 nM; IC50 [3, 6]: < 10 nM
10 to 100 nM	CNC(=O)c1ccc(N2CCC(N3CCC(c4cc5ncccc5c(=O)[nH]4)C3)CC2)cn1 (single isomer, unassigned) [Compound 218a]	+++ (+++ indicate a value of at least 100)	Kd ([1]; PARP2 probe displacement HTRF): > 10000 nM; Kd [2, 7]: 10 to 100 nM
–	CS(=O)(=O)Nc1ccc(N2CCC(N3CCC(c4cc5ccccc5c(=O)[nH]4)C3)CC2)cn1 (single isomer, unassigned) [Compound 252a]	− (− indicates a value of less than 10)	Kd ([1]; probe displacement HTRF): 1000 to 10000 nM; Kd [2, 5]: 100 to 1000 nM; IC50 [3, 6]: 100 to 1000 nM
–	CNC(=O)c1cc(Cl)c(N2CCC(N3CCC(c4cc5ccc(F)cc5c(=O)[nH]4)C3)CC2)cn1 (single isomer, unassigned) [Compound 236a]	+ (+ indicates a value of 10 to less than 50)	Kd ([1]; probe displacement HTRF): 100 to 1000 nM; Kd [2, 5]: 10 to 100 nM; IC50 [3, 6]: 10 to 100 nM
–	CNC(=O)c1ccc(N2CCC(N3CCC(c4nc5c(c(=O)[nH]4)COC5)C3)CC2)cn1 (single isomer, unassigned) [Compound 272b]	+ (+ indicates a value of 10 to less than 50)	Kd ([1]; probe displacement HTRF): > 10000 nM; Kd [2, 5]: 100 to 1000 nM; IC50 [3, 6]: 100 to 1000 nM
< 10 nM	CCc1nc(C(=O)NC)ccc1N1CCC(N2CCC(c3ccc(CC)c(=O)[nH]3)C2)CC1 (racemic) [Compound 134rac]	+++ (+++ indicate a value of at least 100)	Kd ([1]; PARP2 probe displacement HTRF): > 10000 nM; Kd [2, 7]: < 10 nM
–	CCc1ccc(C2CCN(C3CCN(c4ccc(C(=O)NC)cc4)CC3)C2)[nH]c1=O (single isomer, unassigned) [Compound 355b]	+++ (+++ indicate a value of at least 100)	Kd ([1]; probe displacement HTRF): 100 to 1000 nM; Kd [2, 5]: < 10 nM; IC50 [3, 6]: < 10 nM
–	CNC(=O)c1ccc(N2CCC(N3CCC(c4cc5c(c(=O)[nH]4)CCC(=O)N5)C3)CC2)cn1 (single isomer, unassigned) [Compound 309b, 5-(4-(3-(2,5-dioxo-1,2,3,4,5,6-hexahydro-1,6-naphthyridin-7-yl)pyrrolidin-1-yl)piperidin-1-yl)-N-methylpicolinamide]	++ (++ indicates a value of 50 to less than 100)	Kd ([1]; probe displacement HTRF): > 10000 nM; IC50 [3, 6]: 10 to 100 nM
< 10 nM	CNC(=O)c1ccc(N2CCC(N3CCCC(c4nc5ccccc5c(=O)[nH]4)C3)CC2)c(Cl)n1 (single isomer, unassigned) [Compound 94b]	+++ (+++ indicate a value of at least 100)	Kd ([1]; PARP2 probe displacement HTRF): > 10000 nM; Kd [2, 7]: < 10 nM
< 10 nM	CNC(=O)c1ccc(N2CCC(N3CCC(c4nc5cccc(Cl)c5c(=O)[nH]4)C3)CC2)cn1 (single isomer, unassigned) [Compound 85b]	++ (++ indicates a value of 50 to less than 100)	Kd ([1]; PARP2 probe displacement HTRF): 10 to 100 nM; Kd [2, 7]: < 10 nM
10 to 100 nM	COCCNC(=O)c1ccc(N2CCC(N3CCCC(c4nc5ccccc5c(=O)[nH]4)C3)CC2)cn1 (single isomer, unassigned) [Compound 116a]	+++ (+++ indicate a value of at least 100)	Kd ([1]; PARP2 probe displacement HTRF): > 10000 nM; Kd [2, 7]: 10 to 100 nM
–	CS(=O)(=O)Nc1ccc(N2CCC(N3CCC(c4nc5ccccc5c(=O)[nH]4)C3)CC2)cc1 (single isomer, unassigned) [Compound 250b]	+ (+ indicates a value of 10 to less than 50)	Kd ([1]; probe displacement HTRF): 100 to 1000 nM; Kd [2, 5]: 10 to 100 nM; IC50 [3, 6]: 10 to 100 nM
–	CNC(=O)c1ccc(N2CCC(N3CCC(c4cc5c(F)cncc5c(=O)[nH]4)C3)CC2)cn1 (single isomer, unassigned) [Compound 331a]	+++ (+++ indicate a value of at least 100)	Kd ([1]; probe displacement HTRF): 100 to 1000 nM; Kd [2, 5]: < 10 nM; IC50 [3, 6]: < 10 nM
100 to 1000 nM	CNC(=O)c1ccc(N2CCC(N3CCC(c4nc5ccccc5c(=O)[nH]4)CC3)CC2)cn1 [Compound 1]	–	–
100 to 1000 nM	O=c1[nH]c(C2CCN(C3CCN(c4ccccc4)CC3)C2)nc2ccccc12 (single isomer, unassigned) [Compound 32b]	–	–
100 to 1000 nM	CCc1cnc(-c2ccn(C3CCN(c4ccc(C(=O)NC)nc4)CC3)n2)[nH]c1=O [Compound 25]	–	–

IC50 [3, 4]	SMILES	Selectivity ([2]; probe displacement HTRF)	also measured
100 to 1000 nM	CNC(=O)c1ccc(N2CC(N3CCC(c4nc5ccccc5c(=O)[nH]4)CC3)C2)cn1 [Compound 28]	–	–
100 to 1000 nM	CNC(=O)c1ccc(N2CCC(n3ccc(-c4nc5ccccc5c(=O)[nH]4)c3)CC2)cn1 [Compound 18]	–	–
100 to 1000 nM	CNC(=O)c1ccc(N2CC(N3CCCC(c4nc5ccccc5c(=O)[nH]4)C3)C2)cn1 (single isomer, unassigned) [Compound 23a]	–	–
100 to 1000 nM	CNC(=O)c1ccc(OCCCN2CCCC(c3nc4ccccc4c(=O)[nH]3)C2)cn1 (single isomer, unassigned) [Compound 7b]	–	–
> 10000 nM	CNC(=O)c1ccc(N2CCC(N3CCCC(c4ncc(C)c(=O)[nH]4)C3)CC2)cn1 (single isomer, unassigned) [Compound 33a]	–	–
1000 to 10000 nM	CNC(=O)c1ccc(N2CCC(c3nc4ccccc4c(=O)[nH]3)CC2)cn1 [Compound 5]	–	–
1000 to 10000 nM	CCc1cnc(C2CCCN(C3CCC(F)(F)CC3)C2)[nH]c1=O (single isomer, unassigned) [Compound 24b]	–	–
1000 to 10000 nM	CCc1cnc(C2CCN(CC3CCN(c4ccc(C(=O)NC)nc4)CC3)CC2)[nH]c1=O [Compound 29]	–	–
100 to 1000 nM	O=c1[nH]c(C2CCCN(C3CCC(F)(F)CC3)C2)nc2ccccc12 (single isomer, unassigned) [Compound 3a]	–	–
100 to 1000 nM	CNC(=O)c1ccc(N2CCC(n3ccc(-c4nc5ccccc5c(=O)[nH]4)n3)CC2)cn1 [Compound 15]	–	–
100 to 1000 nM	CNC(=O)c1ccc(N(C)CCCN2CCCC(c3nc4ccccc4c(=O)[nH]3)C2)cn1 (single isomer, unassigned) [Compound 16b]	–	–
1000 to 10000 nM	CNC(=O)c1ccc(N2CCC(N3CCCC(c4nc5ccccc5c(=O)[nH]4)C3)CC2)c(C)n1 (stereo not shown) [Compound 131]	–	–
1000 to 10000 nM	CCc1cnc(C2CCCN(C3CCC(F)(F)CC3)C2)[nH]c1=O (single isomer, unassigned) [Compound 24a]	–	–
100 to 1000 nM	CNC(=O)c1ccc(N2CCC(CN3CCC(c4ncc(C)c(=O)[nH]4)CC3)CC2)cn1 [Compound 30]	–	–
1000 to 10000 nM	CCc1cnc(C2CCN(C3CCN(c4ccc(C(=O)NC)nc4)CC3)CC2)[nH]c1=O [Compound 19]	–	–
100 to 1000 nM	CNC(=O)c1ccc(N2CCC(N3CCC(c4ncc(C)c(=O)[nH]4)C3)CC2)cn1 (single isomer, unassigned) [Compound 35a]	–	–
100 to 1000 nM	O=c1[nH]c(C2CCCN(C3CCC(F)(F)CC3)C2)nc2ccccc12 (single isomer, unassigned) [Compound 3b]	–	–
1000 to 10000 nM	CCc1cnc(-c2ccn(C3CCN(c4ccc(C(=O)NC)nc4)CC3)c2)[nH]c1=O [Compound 22]	–	–
100 to 1000 nM	CNC(=O)c1ccc(N(C)CCCN2CCCC(c3nc4ccccc4c(=O)[nH]3)C2)cn1 (single isomer, unassigned) [Compound 16a]	–	–
1000 to 10000 nM	CNC(=O)c1ccc(N(C)CCN2CCCC(Cc3nc4ccccc4c(=O)[nH]3)C2)cn1 (single isomer, unassigned) [Compound 13a]	–	–
100 to 1000 nM	O=c1[nH]c(C2CCN(C3CCC(F)(F)CC3)C2)nc2ccccc12 (single isomer, unassigned) [Compound 4b]	–	–
1000 to 10000 nM	CCc1cnc(C2CCN(C3CCC(F)(F)CC3)CC2)[nH]c1=O [Compound 21]	–	–
